Results from patent US7935718B2, “Treatment of dyskinesia” (Motac Neuroscience Limited, priority 2000, dated 2011).

How the values were obtained:
[1] = system: MPTP-lesioned marmoset model of Parkinson's disease; test: L-DOPA-induced mobility and dyskinesia in MPTP-lesioned marmosets; format: in vivo, Marmosets (Callithrix jacchus); details: L-DOPA (8 mg/kg) + imetit 1, 3, 10 mg/kg oral; assessed every 30 minutes for 4 hours
Method: The effect of the H3-histamine receptor agonist imetit on L-DOPA-induced dyskinesia was assessed in the MPTP-lesioned marmoset model of Parkinson's disease.
Marmosets (Callithrix jacchus) (bred in a closed colony at the University of Manchester) are rendered parkinsonian by subcutaneous injection of 2 mg kg^−1 MPTP for 5 consecutive days. The marmosets are allowed to recover for a minimum of 10 weeks until their parkinsonism becomes stable. The degree of activity and disability before and after MPTP treatment is assessed using a combination of scales as described in section 2.1.2. Animals are then treated with L-DOPA for at least 3 weeks to prime them to elicit dyskinesia. […]
The behavioural tests were assessed every 30 minutes for 4 hours, by post hoc analysis of video-recordings by an observer blinded to the treatment. […]

[2] = system: reserpine-treated rat model of Parkinson's disease; test: Locomotion (hyperkinesia) after chloro-APB in reserpine-treated parkinsonian rats; format: in vivo; details: reserpine (3 mg/kg) rats, chloro-APB (0.2 mg/kg) + imetit (1 mg/kg) versus vehicle, one hour period
Method: The effect of the H3-histamine receptor agonist imetit on dyskinesia was assessed in a reserpine-treated rat model of Parkinson's disease following treatment of the rats with the anti-parkinsonian agent chloro-APB (0.2 mg/kg).
Male Sprague-Dawley rats were split into two groups A and B. Rats in both groups were rendered parkinsonian by subcutaneous administration of reserpine (3 mg/kg) for 18 hours.
After the 18 hours Group A were treated with chloro-APB (0.2 mg/kg) and imetit (1 mg/kg) whereas B were treated with chloro-APB (0.2 mg/kg) and vehicle for imetit only.
The locomotion of the rats in Groups A and B was measured over a one hour period using Benwick locomotor monitors. These locomotion monitors consist of a visually-shielded open-field arena, the perimeter of which is surrounded by a series of infra-red beams arranged at 5 cm intervals. PC-based software (Amlogger) assesses the number of beams broken. The number of beams broken as part of a locomotor movement (mobile counts) or the number of beam breaks while the animal is not locomoting (static counts) were measured. In addition, the system assesses the time for which animals are mobile or static.

N=C(N)SCCc1cnc[nH]1 [imetit]
L-DOPA-induced mobility (mobility score) [1]: no effect on L-DOPA-induced mobility
severity of L-DOPA-induced dyskinesia (dyskinesia score) [1]: dose-dependent reduction
total mobile counts [2]: less than those treated with vehicle
